Measurements as given in patent publication US20240075099A1, “COMPOSITIONS, ASSAYS, AND METHODS FOR TARGETING HDM2 AND HDMX TO REVERSE THE INHIBITION OF p53 IN [sequence] CANCERS” (Dana-Farber Cancer Institute, Inc., priority 2016, published 2024).
Entries after “also recorded” stand apart in the source; their conditions may differ.

Experiments:
MV4; 11 cells [1] = assay: Viability of pediatric AML cell line; type: cell-based; conditions: 11, FIG. 6A
MV4; 11 cells [2] = assay: Cellular uptake, fluorescence scan of lysates from treated cells; type: cell-based; conditions: full serum, 4 h, FIG. 6B
Description: Cellular Penetrability Assays: To measure the cell penetrability of peptides or crosslinked polypeptides, intact cells are incubated with fluoresceinated crosslinked polypeptides (10 μM) for 4 hrs in serum-free media or in media supplemented with human serum at 37° C., washed twice with media and incubated with trypsin (0.25%) for 10 min at 37° C. The cells are washed again and resuspended in PBS. Cellular fluorescence is analyzed, for example, by using either a FACSCalibur flow cytometer or Cellomics' KineticScan® HCS Reader. Alternative methods include, e.g., high content epifluorescence microscopy, confocal imaging, or fluorescence scan of electrophoresed lysates from FITC-peptide treated cells (see, e.g., LaBelle et al. JCI 2012, 122: 2018-31).

Molm-14 leukemia cells = assay: CellTiter-Glo viability, leukemia cells; type: cell-based; conditions: wild-type p53, 10% serum, 48 h, FIG. 11
Description: (§1) Importantly, the sensitivity of RS4; 11 and Molm-14 cells is peptide sequence dependent, as the F19A point mutant analog of ALRN-7041, ALRN-7041 F19A, has no effect (FIG. 11). Leukemia cells were treated in 10% serum with a serial dilution of stapled p53 peptides or Nutlin 3a, and then measured by CellTiter-Glo assay.

Nomo-1 = assay: CellTiter-Glo viability, leukemia cells; type: cell-based; conditions: mutant p53 (C242 frameshift), 10% serum, 48 h, FIG. 11
Description: as §1

RS4; 11 leukemia cells = assay: CellTiter-Glo viability, leukemia cells; type: cell-based; conditions: wild-type p53, 10% serum, 48 h, FIG. 11
Description: as §1

Thp-1 = assay: CellTiter-Glo viability, leukemia cells; type: cell-based; conditions: mutant p53 (R174 frameshift), 10% serum, 48 h, FIG. 11
Description: as §1

[3] = tested on: p53 protein level in RS4; 11 cells; assay: p53 protein level by flow cytometry; type: cell-based; conditions: 3 hours, 10% serum, FIG. 12
Description: RS4; 11 cells were plated in 6-well plates (10^6/well) in RMPI containing 10% FBS and treated for 3 hours with ALRN-7041, ALRN-7041 F19A, or vehicle control (0.2% DMSO) in the presence of 10% serum. Cells were then harvested by centrifugation, washed in ice cold PBS, and resuspended in 100 viL PBS containing 1 μL Fixable Viability Stain 450 (BD Biosciences, Franklin Lakes. NJ, USA) and incubated in the dark at room temperature for 15 minutes. The cells were stained for p53 immunofluorescence with Cytofix/Cytoperm and the PE Mouse Anti-p53 Set (BD Biosciences) according to the manufacturer's instructions, using 10 viL PE-G59-12 anti-p53 mouse IgG1 or isotype control antibody per 10 6 cells. Stained and fixed cells were analyzed on an LSR II flow cytometer (BD Biosciences). Cell populations were gated on forward and side scatter to select for single cells and on fluorescence at 450 nm to select for live cells, and PE fluorescence in the gated population was measured at 578 nm.

[4] = tested on: high grade glioma (e.g. GBM) neurospheres bearing mutant p53; assay: CellTiter-Glo viability, neurospheres; type: cell-based; conditions: 72 h, FIG. 13
Description: (§4) Cells were plated in 96-well opaque plates (5000 cells/well) in Neurobasal-A/DMEM/F-12 mixture media containing HEPES, MEM sodium pyruvate, MEM non-essential amino acids, GlutaMAX, B27 Supplement, H-EGF, H-FGF, H-PDGF-AA, H-PDGF-BB, and heparin. The following day, the cells were treated with the indicated concentrations of drug or vehicle control (0.2% DMSO). […] Cell viability was measured after 72 h by CellTiter-Glo assay (Promega, Madison, WI, USA), performed according to the manufacturer's instructions, and percent viability calculated based on the untreated controls. Error bars are mean±s.e.m for experiments performed in technical triplicate.

[5] = tested on: Ewing sarcoma cell lines that bear wild-type p53; assay: CellTiter-Glo viability, Ewing sarcoma cell line panel; type: cell-based; conditions: 72 h, FIG. 14
Source text: (§2) Error bars are mean±s.e.m. for eight technical replicates.
(§3) A panel of Ewing sarcoma cell lines that bear wild-type p53 (black) vs. mutant or deleted p53 (grey) were exposed to a serial dilution of ALRN-7041 (FIG. 14).

[6] = tested on: Ewing sarcoma cells bearing mutant or deleted p53; assay: as above; type: cell-based; conditions: 72 h, FIG. 14
Source text: as §2, §3

[7] = tested on: p53 wild-type TC32 and TC138 Ewing sarcoma cells; assay: Western blot of lysates, p53 pathway; type: cell-based; conditions: FIG. 15
Source text: Western blot analysis of electrophoresed lysates from p53 wild-type TC32 and TC138 Ewing sarcoma cells treated with ALRN-7041 at the indicated doses and time points and probed with anti-MDM2, p53, and p21 antibodies.

TC32 Ewing sarcoma cells = assay: Annexin V/PI staining and FACS analysis; type: cell-based; conditions: 1 μM, 48 hours post-treatment, FIG. 16
Description: TC32 Ewing sarcoma cells were treated with vehicle or 1 μM ALRN-7041 and then subjected to Annexin V/PI staining and FACS analysis at 48 hours post-treatment.

[8] = tested on: TC32 Ewing Sarcoma xenograft; assay: Western analysis of xenograft tumor tissue; type: in vivo, mice; conditions: three intravenous doses, 8 hours after last dose, FIG. 17
Description: After TC32 Ewing sarcoma tumor engraftment, mice were treated with three intravenous doses of ALRN-7041 or vehicle and sacrificed 8 hours after the last dose. Each lane of the gel represents an individual mouse tumor, subjected to western analysis using anti-MDM2, p53, and p21 antibodies. Anti-tubulin was used as a loading control.

[9] = tested on: TC32 Ewing Sarcoma xenografts; assay: mRNA quantitation in xenograft tumor tissue; type: in vivo, mice; conditions: normalized to vehicle-treated samples, FIG. 18
Source text: ALRN-7041 treatment of mice bearing TC32 Ewing Sarcoma xenografts increases MDM2 and p21 mRNA levels in tumor tissue (FIG. 18). Each bar represents the response of an individual mouse tumor, as assessed by replicates of mRNA quantitation. Values are normalized to vehicle-treated samples. Error bars are mean±SD.

[10] = tested on: TC32 Ewing Sarcoma xenografts; assay: Xenograft tumor growth; type: in vivo, mice; conditions: 30 mg/kg IV q.o.d. vs vehicle, two-way ANOVA p=0.0036, FIG. 19
Description: Treatment of mice bearing TC32 Ewing Sarcoma xenografts with 30 mg/kg ALRN-7041 IV q.o.d. […] Error bars are mean±SD. For each animal, treatment was instituted when tumors achieved a tumor volume of 100 mm^3, as determined by caliper measurement. Statistical ignificance was calculated by two-way ANOVA analysis (p=0.0036).

[11] = tested on: DIPG neurospheres bearing wild-type p53
Description: as §4

Ac-LTF*EYWAQZ*SAA-NH2 [ALRN-7041] was tested, and the cell viability (MV4; 11 cells [1]) was “impairs cell viability in both a dose-responsive and peptide sequence-dependent fashion; also recorded: dose-responsively impairs the viability”, the cellular uptake (MV4; 11 cells [2]) was “readily taken up by cells” and the cell viability (Molm-14 leukemia cells) was “succumb to ALRN-7041 in dose-responsive fashion”. For the same molecule, the cell viability (Nomo-1) was “unaffected by treatment”, the cell viability (RS4; 11 leukemia cells) was “succumb to ALRN-7041 in dose-responsive fashion” and the cell viability (Thp-1) was “unaffected by treatment”. The p53 protein level [3] was “dose-responsively upregulates p53 protein level”, the cell viability [4] was “no susceptibility” and the cell viability [5] was “dose-responsively impaired the viability”. The cell viability [6] was “little to no effect”, the MDM2 protein induction [7] was “transient induction” and the p21 protein induction [7] was “robust induction”. The p53 protein induction [7] was “robust induction”, the “Annexin V/PI double positivity (apoptosis)” value (TC32 Ewing sarcoma cells) was “robust Annexin V/PI double positivity” and the “MDM2 protein level in tumor tissue” value [8] was “induces”. For the same molecule, the “p21 protein level in tumor tissue” value [8] was “induces”, the “p53 protein level in tumor tissue” value [8] was “induces” and the “MDM2 mRNA level in tumor tissue” value [9] was “increases”. The “p21 mRNA level in tumor tissue” value [9] was “increases”, the tumor growth [10] was “statistically significant suppression of tumor growth” and the “cytotoxic effect compared to a selective small molecule inhibitor of HDM2” value [11] was “markedly enhanced cytotoxic effect”. For the same molecule, the cell viability ([11]; 72 h, FIG. 13) was “succumb to treatment”.
With `COc1ccc(C2=N[C@@H](c3ccc(Cl)cc3)[C@@H](c3ccc(Cl)cc3)N2C(=O)N2CCNC(=O)C2)c(OC(C)C)c1` [Nutlin-3a, reference compound] the cell viability (MV4; 11 cells [1]) was “little to no effect; also recorded: resistant”.
